Results as given in US9751888B2, “Heterocyclic compounds and uses thereof” (Infinity Pharmaceuticals, Inc., priority 2013, dated 2017).

Biological target: human Class I PI3 kinase γ (Homo sapiens (Human), UniProt P48736)
Experiment: PI3-Kinase Promega ADP-Glo Max assay, γ isoform
Type: biochemical
Settings: 40 nM kinase, 3 mM ATP, 500 uM diC8-PtdInsP; read-out: Promega γ PI3K IC50
Protocol: Promega ADP-Glo Max assay kit (Cat. No. V7002) was utilized to determine IC50 values for α, β, δ and γ isoforms of human Class I PI3 kinases (Millipore). Samples of kinase (20 nM α or δ, 40 nM β or γ isoform) were incubated with compound for 15 minutes at room temperature in reaction buffer (15 mM HEPES pH 7.4, 20 mM NaCl, 1 mM EGTA, 0.02% Tween 20, 10 mM MgCl2, 0.2 mg/mL bovine-γ-globulins) followed by addition of ATP/diC8-PtdInsP mixture to give final concentrations of 3 mM ATP and 500 uM diC8-PtdInsP. Reactions were incubated at room temperature for 2 hours followed by addition of 25 uL of stop solution. After a 40-minute incubation at room temperature, 50 uL of Promega detection mix was added followed by incubation for 1 hour at room temperature. Plates were then read on Envision plate reader in luminescence mode. Data was converted to % inhibition using the following equation below:
[formula] where S is the sample luminescence, Pos is a positive control without added PI3K, Neg is the negative control without added compound. Data was then plotted as % inhibition vs compound concentration.
Certain compounds provided herein were tested in PI3-Kinase Promega Assay using procedures as described above to determine IC50 values for α, β, δ and/or γ isoforms.

| SMILES | IC50 [nM] |
| --- | --- |
| C[C@H](NC(=O)c1c(N)nn2cccnc12)c1cc2cccc(Cl)c2c(=O)n1CCc1ncn[nH]1 [Compound 20] | 500 to 1000 |
| C[C@H](NC(=O)c1c(N)nn2cccnc12)c1cc2cccc(Cl)c2c(=O)n1CCc1c[nH]cn1 [Compound 21] | 1000 to 10000 |
| C[C@H](NC(=O)c1nccnc1N)c1nc2cccc(Cl)c2c(=O)n1-c1ccc(F)cc1 [Compound 46] | 100 to 500 |
| C[C@H](NC(=O)c1c(N)nn2cccnc12)c1cc2cccc(-c3cnn(CC#N)c3)c2c(=O)n1-c1ccccc1 [Compound 48] | 100 to 500 |
| C[C@H](NC(=O)c1c(N)nn2cccnc12)c1cc2cccc(-c3cnn(CC(F)(F)F)c3)c2c(=O)n1-c1ccccc1 [Compound 50] | 100 to 500 |

Further lines, results first:

| IC50 [nM] | SMILES |
| --- | --- |
| 10 to 100 | C[C@H](NC(=O)c1c(N)nn2cccnc12)c1cc2cccc(Cl)c2c(=O)n1CCS(N)(=O)=O [Compound 19] |
| 10 to 100 | C[C@H](NC(=O)c1c(N)ncn2ccnc12)c1cc2cccc(Cl)c2c(=O)n1-c1ccccc1 [Compound 43] |
| 10 to 100 | C[C@H](NC(=O)c1c(N)nn2cccnc12)c1nc2cccc(Cl)c2c(=O)n1-c1ccc(F)cc1 [Compound 45] |

Biological target: p110 γ (RAW264.7 cells) (Mus musculus (Mouse), UniProt Q9JHG7)
Experiment: PI3K-γ selective cellular assay: phospho-AKT in C5a stimulated RAW264.7 macrophages
Type: cell-based
Settings: serum-starved RAW264.7 cells stimulated with C5a
Protocol: Certain compounds provided herein were tested in RAW 264.7 cell model using procedures as described above.

| SMILES | IC50 [nM] |
| --- | --- |
| C[C@H](NC(=O)c1c(N)nn2cccnc12)c1cc2cccc(Cl)c2c(=O)n1CCc1ncn[nH]1 [Compound 20] | 1000 to 10000 |
| C[C@H](NC(=O)c1nccnc1N)c1nc2cccc(Cl)c2c(=O)n1-c1ccc(F)cc1 [Compound 46] | 10 to 100 |
| C[C@H](NC(=O)c1c(N)nn2cccnc12)c1cc2cccc(-c3cnn(CC#N)c3)c2c(=O)n1-c1ccccc1 [Compound 48] | 10 to 100 |
| C[C@H](NC(=O)c1c(N)nn2cccnc12)c1cc2cccc(-c3cnn(CC(F)(F)F)c3)c2c(=O)n1-c1ccccc1 [Compound 50] | 10 to 100 |

Continued, values first:

| IC50 [nM] | SMILES |
| --- | --- |
| 10 to 100 | C[C@H](NC(=O)c1c(N)nn2cccnc12)c1cc2cccc(Cl)c2c(=O)n1CCS(N)(=O)=O [Compound 19] |
| 1 to 10 | C[C@H](NC(=O)c1c(N)ncn2ccnc12)c1cc2cccc(Cl)c2c(=O)n1-c1ccccc1 [Compound 43] |
| 1 to 10 | C[C@H](NC(=O)c1c(N)nn2cccnc12)c1nc2cccc(Cl)c2c(=O)n1-c1ccc(F)cc1 [Compound 45] |

Biological target: human Class I PI3 kinase α (Homo sapiens (Human), UniProt P42336)
Experiment: PI3-Kinase Promega ADP-Glo Max assay, α isoform
Type: biochemical
Settings: 20 nM kinase, 3 mM ATP, 500 uM diC8-PtdInsP; read-out: Promega α PI3K IC50

human Class I PI3 kinase α, sequence (P42336 whole entry, canonical isoform): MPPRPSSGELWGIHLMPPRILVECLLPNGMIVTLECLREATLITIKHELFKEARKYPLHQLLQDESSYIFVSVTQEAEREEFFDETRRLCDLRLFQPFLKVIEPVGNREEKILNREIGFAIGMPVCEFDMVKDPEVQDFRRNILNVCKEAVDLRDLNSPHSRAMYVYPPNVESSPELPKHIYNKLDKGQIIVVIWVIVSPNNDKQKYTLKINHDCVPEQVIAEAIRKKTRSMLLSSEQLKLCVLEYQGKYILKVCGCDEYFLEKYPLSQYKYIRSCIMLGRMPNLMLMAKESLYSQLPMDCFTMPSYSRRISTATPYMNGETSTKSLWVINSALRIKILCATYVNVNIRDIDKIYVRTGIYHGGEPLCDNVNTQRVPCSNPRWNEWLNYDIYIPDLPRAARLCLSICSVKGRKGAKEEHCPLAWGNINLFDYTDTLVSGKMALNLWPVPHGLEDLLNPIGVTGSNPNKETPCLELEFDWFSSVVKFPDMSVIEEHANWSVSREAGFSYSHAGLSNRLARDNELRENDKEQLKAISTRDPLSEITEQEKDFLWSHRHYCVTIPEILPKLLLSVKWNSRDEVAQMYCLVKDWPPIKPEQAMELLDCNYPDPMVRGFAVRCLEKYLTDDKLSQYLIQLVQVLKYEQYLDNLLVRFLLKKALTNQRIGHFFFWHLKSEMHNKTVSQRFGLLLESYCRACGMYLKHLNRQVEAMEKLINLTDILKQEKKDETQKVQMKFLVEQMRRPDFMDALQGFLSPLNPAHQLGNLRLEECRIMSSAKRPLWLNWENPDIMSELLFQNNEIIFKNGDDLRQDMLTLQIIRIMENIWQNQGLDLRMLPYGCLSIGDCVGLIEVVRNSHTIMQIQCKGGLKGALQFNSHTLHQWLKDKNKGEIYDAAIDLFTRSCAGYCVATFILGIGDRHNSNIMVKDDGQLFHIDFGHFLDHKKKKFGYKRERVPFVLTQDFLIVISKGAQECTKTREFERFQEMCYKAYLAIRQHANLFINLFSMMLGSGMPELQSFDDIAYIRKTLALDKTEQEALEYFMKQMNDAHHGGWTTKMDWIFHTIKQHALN
human Class I PI3 kinase α, sequence (P27986 whole entry partner, canonical isoform): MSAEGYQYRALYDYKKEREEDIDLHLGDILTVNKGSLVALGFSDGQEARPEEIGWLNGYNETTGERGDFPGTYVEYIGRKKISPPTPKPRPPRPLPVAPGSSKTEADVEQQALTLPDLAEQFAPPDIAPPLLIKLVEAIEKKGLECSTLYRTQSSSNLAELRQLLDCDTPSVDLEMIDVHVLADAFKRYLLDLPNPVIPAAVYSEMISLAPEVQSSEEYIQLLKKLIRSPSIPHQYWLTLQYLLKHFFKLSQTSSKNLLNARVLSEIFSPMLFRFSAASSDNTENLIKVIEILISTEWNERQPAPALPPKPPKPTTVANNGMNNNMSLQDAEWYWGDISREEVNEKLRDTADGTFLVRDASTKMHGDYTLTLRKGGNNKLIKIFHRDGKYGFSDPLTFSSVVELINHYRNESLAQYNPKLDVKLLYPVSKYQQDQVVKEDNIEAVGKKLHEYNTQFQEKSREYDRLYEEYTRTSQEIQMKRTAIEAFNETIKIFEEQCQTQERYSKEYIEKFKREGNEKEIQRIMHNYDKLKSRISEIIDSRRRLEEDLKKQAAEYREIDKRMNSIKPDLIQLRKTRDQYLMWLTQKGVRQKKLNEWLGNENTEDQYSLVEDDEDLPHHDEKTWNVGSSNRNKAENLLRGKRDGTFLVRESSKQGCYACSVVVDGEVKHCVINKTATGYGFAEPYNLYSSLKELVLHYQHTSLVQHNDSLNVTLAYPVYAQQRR

| SMILES | IC50 [nM] |
| --- | --- |
| C[C@H](NC(=O)c1c(N)nn2cccnc12)c1cc2cccc(Cl)c2c(=O)n1CCc1ncn[nH]1 [Compound 20] | 1000 to 10000 |
| C[C@H](NC(=O)c1c(N)nn2cccnc12)c1cc2cccc(Cl)c2c(=O)n1CCc1c[nH]cn1 [Compound 21] | 1000 to 10000 |
| C[C@H](NC(=O)c1nccnc1N)c1nc2cccc(Cl)c2c(=O)n1-c1ccc(F)cc1 [Compound 46] | 1000 to 10000 |
| C[C@H](NC(=O)c1c(N)nn2cccnc12)c1cc2cccc(-c3cnn(CC#N)c3)c2c(=O)n1-c1ccccc1 [Compound 48] | 1000 to 10000 |
| C[C@H](NC(=O)c1c(N)nn2cccnc12)c1cc2cccc(-c3cnn(CC(F)(F)F)c3)c2c(=O)n1-c1ccccc1 [Compound 50] | 1000 to 10000 |

The remaining lines, values ahead:

| IC50 [nM] | SMILES |
| --- | --- |
| 1000 to 10000 | C[C@H](NC(=O)c1c(N)nn2cccnc12)c1cc2cccc(Cl)c2c(=O)n1CCS(N)(=O)=O [Compound 19] |
| 1000 to 10000 | C[C@H](NC(=O)c1c(N)ncn2ccnc12)c1cc2cccc(Cl)c2c(=O)n1-c1ccccc1 [Compound 43] |
| 1000 to 10000 | C[C@H](NC(=O)c1c(N)nn2cccnc12)c1nc2cccc(Cl)c2c(=O)n1-c1ccc(F)cc1 [Compound 45] |

Biological target: human Class I PI3 kinase δ (Homo sapiens (Human), UniProt O00329)
Experiment: PI3-Kinase Promega ADP-Glo Max assay, δ isoform
Type: biochemical
Settings: 20 nM kinase, 3 mM ATP, 500 uM diC8-PtdInsP; read-out: Promega δ PI3K IC50

human Class I PI3 kinase δ, sequence (O00329 whole entry, canonical isoform): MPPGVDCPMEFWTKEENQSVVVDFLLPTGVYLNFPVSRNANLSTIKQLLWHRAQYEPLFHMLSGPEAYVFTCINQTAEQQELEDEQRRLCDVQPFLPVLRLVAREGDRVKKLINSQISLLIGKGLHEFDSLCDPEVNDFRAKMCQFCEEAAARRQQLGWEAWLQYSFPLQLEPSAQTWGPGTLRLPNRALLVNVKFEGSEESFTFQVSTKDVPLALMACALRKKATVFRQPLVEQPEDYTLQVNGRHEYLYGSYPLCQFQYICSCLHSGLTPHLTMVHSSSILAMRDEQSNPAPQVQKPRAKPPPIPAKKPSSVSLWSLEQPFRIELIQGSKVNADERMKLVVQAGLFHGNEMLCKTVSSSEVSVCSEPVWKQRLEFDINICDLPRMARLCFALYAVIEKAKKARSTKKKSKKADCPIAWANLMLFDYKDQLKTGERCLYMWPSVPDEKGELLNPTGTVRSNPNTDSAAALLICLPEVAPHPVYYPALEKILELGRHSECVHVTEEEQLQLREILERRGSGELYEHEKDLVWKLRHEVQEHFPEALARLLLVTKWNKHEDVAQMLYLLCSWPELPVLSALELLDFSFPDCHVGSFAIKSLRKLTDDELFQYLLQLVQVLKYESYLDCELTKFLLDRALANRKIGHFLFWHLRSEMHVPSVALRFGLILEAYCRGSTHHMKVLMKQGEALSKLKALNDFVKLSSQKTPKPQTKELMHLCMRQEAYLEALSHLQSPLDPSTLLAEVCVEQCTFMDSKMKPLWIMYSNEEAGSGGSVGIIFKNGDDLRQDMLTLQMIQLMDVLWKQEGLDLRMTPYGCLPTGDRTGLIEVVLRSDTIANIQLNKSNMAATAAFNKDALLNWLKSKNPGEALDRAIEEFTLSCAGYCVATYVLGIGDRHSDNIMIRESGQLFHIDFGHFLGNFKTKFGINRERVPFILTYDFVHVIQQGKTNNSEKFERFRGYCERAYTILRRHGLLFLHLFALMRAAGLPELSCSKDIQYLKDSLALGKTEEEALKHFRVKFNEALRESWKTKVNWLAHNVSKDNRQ
human Class I PI3 kinase δ, sequence (P27986 whole entry partner, canonical isoform): as the sequence (P27986 whole entry partner, canonical isoform) above

| SMILES | IC50 [nM] |
| --- | --- |
| C[C@H](NC(=O)c1c(N)nn2cccnc12)c1cc2cccc(Cl)c2c(=O)n1CCc1ncn[nH]1 [Compound 20] | 1000 to 10000 |
| C[C@H](NC(=O)c1c(N)nn2cccnc12)c1cc2cccc(Cl)c2c(=O)n1CCc1c[nH]cn1 [Compound 21] | 1000 to 10000 |
| C[C@H](NC(=O)c1nccnc1N)c1nc2cccc(Cl)c2c(=O)n1-c1ccc(F)cc1 [Compound 46] | 1000 to 10000 |
| C[C@H](NC(=O)c1c(N)nn2cccnc12)c1cc2cccc(-c3cnn(CC#N)c3)c2c(=O)n1-c1ccccc1 [Compound 48] | 1000 to 10000 |
| C[C@H](NC(=O)c1c(N)nn2cccnc12)c1cc2cccc(-c3cnn(CC(F)(F)F)c3)c2c(=O)n1-c1ccccc1 [Compound 50] | 1000 to 10000 |

The next lines start with the values.

| IC50 [nM] | SMILES |
| --- | --- |
| 1000 to 10000 | C[C@H](NC(=O)c1c(N)nn2cccnc12)c1cc2cccc(Cl)c2c(=O)n1CCS(N)(=O)=O [Compound 19] |
| 100 to 500 | C[C@H](NC(=O)c1c(N)ncn2ccnc12)c1cc2cccc(Cl)c2c(=O)n1-c1ccccc1 [Compound 43] |
| 1000 to 10000 | C[C@H](NC(=O)c1c(N)nn2cccnc12)c1nc2cccc(Cl)c2c(=O)n1-c1ccc(F)cc1 [Compound 45] |

Biological target: human Class I PI3 kinase β (Homo sapiens (Human), UniProt P42338)
Experiment: PI3-Kinase Promega ADP-Glo Max assay, β isoform
Type: biochemical
Settings: 40 nM kinase, 3 mM ATP, 500 uM diC8-PtdInsP; read-out: Promega β PI3K IC50

human Class I PI3 kinase β, sequence (P42338 whole entry, looked up, canonical isoform): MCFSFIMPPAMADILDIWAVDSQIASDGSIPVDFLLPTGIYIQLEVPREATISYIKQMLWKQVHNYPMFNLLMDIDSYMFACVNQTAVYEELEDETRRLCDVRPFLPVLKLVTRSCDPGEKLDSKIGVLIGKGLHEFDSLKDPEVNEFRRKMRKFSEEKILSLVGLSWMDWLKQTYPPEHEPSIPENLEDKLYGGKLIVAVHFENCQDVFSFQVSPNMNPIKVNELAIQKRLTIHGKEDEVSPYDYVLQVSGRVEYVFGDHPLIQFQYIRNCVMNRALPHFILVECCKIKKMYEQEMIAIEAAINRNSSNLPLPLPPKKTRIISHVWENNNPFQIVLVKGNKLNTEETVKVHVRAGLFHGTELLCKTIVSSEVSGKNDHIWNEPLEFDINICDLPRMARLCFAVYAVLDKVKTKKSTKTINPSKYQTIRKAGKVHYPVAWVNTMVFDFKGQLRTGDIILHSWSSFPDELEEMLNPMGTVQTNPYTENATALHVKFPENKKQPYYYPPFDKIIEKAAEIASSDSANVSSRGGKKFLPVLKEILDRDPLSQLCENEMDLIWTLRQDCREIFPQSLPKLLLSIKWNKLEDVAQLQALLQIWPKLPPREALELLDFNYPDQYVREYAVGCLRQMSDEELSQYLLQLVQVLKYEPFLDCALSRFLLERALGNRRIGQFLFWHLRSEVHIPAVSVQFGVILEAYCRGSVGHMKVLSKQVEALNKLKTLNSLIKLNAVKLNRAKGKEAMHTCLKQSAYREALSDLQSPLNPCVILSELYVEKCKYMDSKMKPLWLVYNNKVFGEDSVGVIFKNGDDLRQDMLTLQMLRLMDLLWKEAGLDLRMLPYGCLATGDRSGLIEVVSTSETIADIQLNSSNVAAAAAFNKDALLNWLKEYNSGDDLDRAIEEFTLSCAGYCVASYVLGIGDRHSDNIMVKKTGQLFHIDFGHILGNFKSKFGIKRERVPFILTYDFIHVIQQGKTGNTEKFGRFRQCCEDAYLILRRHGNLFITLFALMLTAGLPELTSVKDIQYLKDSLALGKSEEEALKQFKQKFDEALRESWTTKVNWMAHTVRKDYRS
human Class I PI3 kinase β, sequence (P27986 whole entry partner, looked up, canonical isoform): as the sequence (P27986 whole entry partner, canonical isoform) above

| SMILES | IC50 [nM] |
| --- | --- |
| C[C@H](NC(=O)c1c(N)nn2cccnc12)c1cc2cccc(Cl)c2c(=O)n1CCc1ncn[nH]1 [Compound 20] | 500 to 1000 |
| C[C@H](NC(=O)c1c(N)nn2cccnc12)c1cc2cccc(Cl)c2c(=O)n1CCc1c[nH]cn1 [Compound 21] | 100 to 500 |
| C[C@H](NC(=O)c1nccnc1N)c1nc2cccc(Cl)c2c(=O)n1-c1ccc(F)cc1 [Compound 46] | 1000 to 10000 |
| C[C@H](NC(=O)c1c(N)nn2cccnc12)c1cc2cccc(-c3cnn(CC#N)c3)c2c(=O)n1-c1ccccc1 [Compound 48] | 1000 to 10000 |
| C[C@H](NC(=O)c1c(N)nn2cccnc12)c1cc2cccc(-c3cnn(CC(F)(F)F)c3)c2c(=O)n1-c1ccccc1 [Compound 50] | 1000 to 10000 |

Continued, values first:

| IC50 [nM] | SMILES |
| --- | --- |
| 100 to 500 | C[C@H](NC(=O)c1c(N)nn2cccnc12)c1cc2cccc(Cl)c2c(=O)n1CCS(N)(=O)=O [Compound 19] |
| 1000 to 10000 | C[C@H](NC(=O)c1c(N)ncn2ccnc12)c1cc2cccc(Cl)c2c(=O)n1-c1ccccc1 [Compound 43] |
| 1000 to 10000 | C[C@H](NC(=O)c1c(N)nn2cccnc12)c1nc2cccc(Cl)c2c(=O)n1-c1ccc(F)cc1 [Compound 45] |

Biological target: p110 δ (RAJI cells) (Homo sapiens (Human), UniProt O00329)
Experiment: PI3K-δ selective cellular assay: phospho-AKT in anti-human IgM stimulated RAJI cells
Type: cell-based
Settings: serum-starved RAJI cells stimulated with anti-human IgM
Text: A compound's ability in selectively inhibiting PI3K-δ can be assessed using RAJI cells, i.e., B lymphocyte cells derived from lymphoma patients. Briefly, serum-starved RAJI cells are stimulated with anti-human IgM, thereby causing signaling through the B-cell receptors, as described in, for example, He et al., Leukemia Research (2009) 33: 798-802. B-cell receptor signaling is important for the activation, differentiation, and survival of B cells and certain B-cell derived cancers. Reduction of phospho-AKT is indicative of compounds that may inhibit B-cell proliferation and function in certain diseases. […] Certain compounds provided herein were tested in RAJI cell model using procedures as described above.

p110 δ (RAJI cells), sequence (O00329 whole entry): as the sequence (O00329 whole entry, canonical isoform) above
p110 δ (RAJI cells), sequence (P27986 whole entry partner): as the sequence (P27986 whole entry partner, canonical isoform) above

| SMILES | IC50 [nM] |
| --- | --- |
| C[C@H](NC(=O)c1c(N)nn2cccnc12)c1cc2cccc(Cl)c2c(=O)n1CCc1ncn[nH]1 [Compound 20] | 10 to 100 |
| C[C@H](NC(=O)c1nccnc1N)c1nc2cccc(Cl)c2c(=O)n1-c1ccc(F)cc1 [Compound 46] | 1 to 10 |
| C[C@H](NC(=O)c1c(N)nn2cccnc12)c1cc2cccc(-c3cnn(CC#N)c3)c2c(=O)n1-c1ccccc1 [Compound 48] | 100 to 500 |
| C[C@H](NC(=O)c1c(N)nn2cccnc12)c1cc2cccc(-c3cnn(CC(F)(F)F)c3)c2c(=O)n1-c1ccccc1 [Compound 50] | 100 to 500 |

Second part, the molecule after the results:

| IC50 [nM] | SMILES |
| --- | --- |
| 10 to 100 | C[C@H](NC(=O)c1c(N)nn2cccnc12)c1cc2cccc(Cl)c2c(=O)n1CCS(N)(=O)=O [Compound 19] |
| 1 to 10 | C[C@H](NC(=O)c1c(N)ncn2ccnc12)c1cc2cccc(Cl)c2c(=O)n1-c1ccccc1 [Compound 43] |
| 10 to 100 | C[C@H](NC(=O)c1c(N)nn2cccnc12)c1nc2cccc(Cl)c2c(=O)n1-c1ccc(F)cc1 [Compound 45] |
